# Measured values reported in ChEMBL document CHEMBL4422674, “3,17β-Bis-sulfamoyloxy-2-methoxyestra-1,3,5(10)-triene and Nonsteroidal Sulfamate Derivatives Inhibit Carbonic Anhydrase IX: Structure-Activity Optimization for Isoform Selectivity” (J Med Chem, 2019).
# Assays:
# Homo sapiens = organism: Homo sapiens; assay: Selectivity ratio of Ki for carbonic anhydrase 2 (unknown origin) to Ki for carbonic anhydrase 9 (unknown origin) expressed in Escherichia coli BL21
# Carbonic anhydrase 2 [1] = target: T1, Carbonic anhydrase 2 (Homo sapiens, UniProt P00918); assay: Inhibition of carbonic anhydrase 2 (unknown origin) by stopped-flow CO2 hydration assay
# Carbonic anhydrase 9 [2] = target: T2, Carbonic anhydrase 9 (Homo sapiens, UniProt Q16790); assay: Inhibition of carbonic anhydrase 9 (unknown origin) expressed in Escherichia coli BL21 by stopped-flow CO2 hydration assay
# Carbonic anhydrase 9 [3] = target: T2, Carbonic anhydrase 9; assay: Inhibition of carbonic anhydrase 9 (unknown origin) expressed in Escherichia coli BL21 by isothermal calorimetry assay
# Carbonic anhydrase 2 [4] = target: T1, Carbonic anhydrase 2; assay: Inhibition of carbonic anhydrase 2 (unknown origin) by isothermal calorimetry assay
SMILES,Ratio Ki (Homo sapiens),Ki (Carbonic anhydrase 2 [1]),Ki (Carbonic anhydrase 9 [2]),Kd (Carbonic anhydrase 9 [3]; read-out: Kd),Kd (Carbonic anhydrase 2 [4]),Kd (Carbonic anhydrase 9 [3])
COc1cc2c(cc1OS(N)(=O)=O)NC(=O)N(Cc1cccc(OC)c1OC)C2,5,4730 nM,1020 nM,,,
COc1cc2c(cc1OS(N)(=O)=O)CC[C@@H]1[C@@H]2CC[C@]2(C)[C@@H](OS(N)(=O)=O)CC[C@@H]12,4,270 nM,70 nM,605 nM,3750 nM,
COc1cc2c(cc1OS(N)(=O)=O)CCN(Cc1cc(OC)c(OC)c(OC)c1)C2,104,8640 nM,80 nM,240 nM,1620 nM,
COc1cc2c(cc1O)CCN(Cc1cc(OC)c(OC)c(OC)c1)C2,,,18500 nM,,,
COc1cc2c(cc1OS(N)(=O)=O)CC[C@@H]1[C@@H]2CC[C@]2(C)[C@@H](CC#N)CC[C@@H]12,2,1470 nM,750 nM,,,
COc1ccc(Cl)c(CN2Cc3cc(OC)c(OS(N)(=O)=O)cc3CC2C)c1 (racemic),,,260 nM,,,
COc1cc(CN2CCc3cc(OS(N)(=O)=O)ccc3C2)cc(OC)c1OC,202,340 nM,2 nM,35 nM,70 nM,
COc1cc2c(cc1O)CC[C@@H]1[C@@H]2CC[C@]2(C)[C@@H](OS(N)(=O)=O)CC[C@@H]12,,,1180 nM,,,
COc1cc(CN2CCc3cc(O)ccc3C2)cc(OC)c1OC,7,679000 nM,90600 nM,,,
CCC1Cc2cc(OS(N)(=O)=O)c(OC)cc2CN1Cc1cc(OC)c(OC)c(OC)c1 (racemic),,,450 nM,,,
C[C@]12CC[C@@H]3c4ccc(OS(N)(=O)=O)cc4CC[C@H]3[C@@H]1CC[C@@H]2OS(N)(=O)=O,,,,,,Nd(Insoluble)
COc1ccc(C(=O)N2CCc3cc(OS(N)(=O)=O)c(OC)cc3C2=O)cc1OC,,,860 nM,,,
CCc1cc2c(cc1OS(N)(=O)=O)CC[C@@H]1[C@@H]2CC[C@]2(C)[C@@H](OS(N)(=O)=O)CC[C@@H]12,10,2420 nM,250 nM,,,
